According to US20070116782A1, “USE OF RARE EARTH COMPOUNDS FOR THE PREVENTION OF KIDNEY STONE DISEASE” (SHIRE INT[…] B.V., priority 2001, published 2007):
Like-named read-outs stand apart in the source and are kept apart here.

Key:
[1] = Description: (§1) In order to assess removal of oxalate from a stock solution by lanthanum carbonate, an oxalate binding assay was developed. […] Further, the buffer conditions were designed to mimic the conditions present in the stomach and in the small intestine. Briefly, 50 mL of a stock sodium oxalate solution containing 8.5 g/L sodium chloride was adjusted to the desired pH using 5N HCl and the Mettler-Toledo DL58 autotitrator. Various combinations of oxalate and lanthanum carbonate concentrations were tested to determine which would maximize oxalate removal. Prior to the addition of the desired amount of lanthanum carbonate, a 2 mL sample was taken to act as a zero time point sample. The volume of buffer was made up to 50 mL again by adding 2 mL of stock oxalate buffer back to the pH adjusted buffer and the lanthanum carbonate was added. […] In addition, samples were assayed at 590 nm in a Falcon 96-well microplate using the Molecular Devices Spectramax 190 plate reader.
In order to maximize the accuracy of the results, the filtered samples were assayed at a 1/20 dilution.
The procedure described above was repeated at various pH's in the range of 3-7.

[2] = 0.1 M compound, 0.01 M oxalate, 0.1 M phosphate (10-fold excess)
Description: In addition, samples were assayed at 590 nm in a Falcon 96-well microplate using the Molecular Devices Spectramax 190 plate reader.

[3] = 0.1 M compound; 0.1 M phosphate, 0.01 M oxalate; pH 3 gradually increased to pH 7
Description: In order to simulate the passing of lanthanum oxalate through the digestive system, a final experiment was designed which would study both oxalate and phosphate removal as the pH changed from pH 3 (i.e. stomach pH) to pH 7 (i.e. approximate intestinal pH).
Removal of both oxalate and phosphate were monitored for ten minutes. […] Samples were taken at pH 4, 5, 6, and 7 in order to assess changes in the amount of oxalate and phosphate present in the solution.

[4] = Oxalate binding assay of Example 1 with pH maintained with 1N NaOH (chlorides, acetates); details: pH 7, pH maintained with 1N NaOH
Description: as §1

[5] = pH 7, 0.1 M compound, 0.01 M sodium oxalate, 8.5 g/L sodium chloride

O=C([O-])[O-].O=C([O-])[O-].O=C([O-])[O-].[Ce+3].[Ce+3] [cerium carbonate]
oxalate binding ([1]; pH 3 (compared with pH 7), 0.1 M compound): less effective | oxalate binding compared with 0.1 M lanthanum carbonate ([1]; pH 7, 0.1 M compound): as effective as 0.1 M lanthanum carbonate

O.O.O.O.O.O=C([O-])[O-].O=C([O-])[O-].O=C([O-])[O-].[La+3].[La+3] [lanthanum carbonate pentahydrate]
oxalate binding [1, 5]: can effectively bind oxalate | competitive binding of oxalate vs phosphate ([2]; pH 3.0): Preferential binding of phosphate | competitive binding of oxalate vs phosphate ([2]; pH 7.0): preferentially bind oxalate over phosphate

O.O.O.O.O=C([O-])[O-].O=C([O-])[O-].O=C([O-])[O-].[La+3].[La+3] [lanthanum carbonate tetrahydrate]
oxalate binding [1, 5]: can effectively bind oxalate | oxalate binding at various pH ([1]; pH range 3-7): can bind oxalate in this pH range (3-7) with preferential binding at pH 6-7

O=C([O-])[O-].O=C([O-])[O-].O=C([O-])[O-].[La+3].[La+3] [lanthanum carbonate]
oxalate binding in the presence of excess phosphate during pH transition [3]: can successfully bind oxalate

[Cl][La]([Cl])[Cl] [lanthanum chloride]
oxalate binding [4]: binds oxalate quite rapidly
